According to the NIST ThermoML archive (doi:10.1021/je100315g):

Assays:
[1] = xn = mol fraction of the nth substance listed; details: 101 kPa, Liquid
[2] = 101 kPa, Liquid

CCCC[n+]1ccn(C)c1.O=S(=O)([N-]S(=O)(=O)C(F)(F)F)C(F)(F)F + C[S+](C)[O-]
mass density [kg/m3], [1]
Details | 293.15 K | 298.15 K | 303.13 K | 308.15 K | 313.15 K
x1 = 0.1025 | 1202.34 | 1197.39 | 1192.43 | 1187.49 | 1182.55
x1 = 0.196 | 1263.15 | 1258.21 | 1253.26 | 1248.31 | 1243.37
x1 = 0.2358 | 1283.38 | 1278.4 | 1273.45 | 1268.49 | 1263.51
x1 = 0.3241 | 1319.45 | 1314.52 | 1309.58 | 1304.64 | 1299.72
x1 = 0.4205 | 1349.72 | 1344.81 | 1339.88 | 1334.99 | 1330.05
x1 = 0.4785 | 1364.67 | 1359.72 | 1354.8 | 1349.87 | 1344.87
x1 = 0.5179 | 1373.61 | 1368.67 | 1363.77 | 1358.86 | 1353.93
x1 = 0.5911 | 1388.28 | 1383.33 | 1378.5 | 1373.59 | 1368.72
x1 = 0.6581 | 1400.07 | 1395.16 | 1390.25 | 1385.42 | 1380.54
x1 = 0.8232 | 1423.06 | 1418.22 | 1413.34 | 1408.48 | 1403.6
x1 = 1 | 1441.63 | 1436.83 | 1431.98 | 1427.16 | 1422.36

C1CCOC1 [tetrahydrofuran]
[2]
Details | mass density [kg/m3]
293.15 K | 887.41
298.15 K | 881.98
303.13 K | 876.47
308.15 K | 870.96

CC#N [acetonitrile] + CCn1cc[n+](C)c1.O=S(=O)([N-]S(=O)(=O)C(F)(F)F)C(F)(F)F
[1], x2 = 0
Details | mass density [kg/m3]
293.15 K | 781.89
298.15 K | 776.52
303.13 K | 771.12
308.15 K | 765.68
313.15 K | 760.2

C1CCOC1 [tetrahydrofuran] + CCn1cc[n+](C)c1.O=S(=O)([N-]S(=O)(=O)C(F)(F)F)C(F)(F)F
[1], x2 = 0
Details | mass density [kg/m3]
293.15 K | 887.41
298.15 K | 881.98
303.13 K | 876.47
308.15 K | 870.96

CC#N [acetonitrile] + CCCC[n+]1ccn(C)c1.O=S(=O)([N-]S(=O)(=O)C(F)(F)F)C(F)(F)F
[1], x2 = 0
Details | mass density [kg/m3]
293.15 K | 781.89
298.15 K | 776.52
303.13 K | 771.12
308.15 K | 765.68
313.15 K | 760.2

CC#N [acetonitrile]
[2]
Details | mass density [kg/m3]
293.15 K | 781.89
298.15 K | 776.52
303.13 K | 771.12
308.15 K | 765.68
313.15 K | 760.2

CCn1cc[n+](C)c1.O=S(=O)([N-]S(=O)(=O)C(F)(F)F)C(F)(F)F
[2]
Details | mass density [kg/m3]
293.15 K | 1522.08
298.15 K | 1516.96
303.13 K | 1511.85
308.15 K | 1506.8
313.15 K | 1501.74

CCCC[n+]1ccn(C)c1.O=S(=O)([N-]S(=O)(=O)C(F)(F)F)C(F)(F)F
[2]
Details | mass density [kg/m3]
293.15 K | 1441.63
298.15 K | 1436.83
303.13 K | 1431.98
308.15 K | 1427.16
313.15 K | 1422.36

CCn1cc[n+](C)c1.O=S(=O)([N-]S(=O)(=O)C(F)(F)F)C(F)(F)F + C[S+](C)[O-]
mass density [kg/m3], [1]
Details | x1 = 0.0593 | x1 = 0.1959 | x1 = 0.3595 | x1 = 0.5086 | x1 = 0.6325 | x1 = 0.7778 | x1 = 0.9378 | x1 = 1
293.15 K | 1173.7 | 1289.73 | 1375.56 | 1427.76 | 1459.88 | 1489.12 | 1513.61 | 1522.08
298.15 K | 1168.67 | 1284.68 | 1370.44 | 1422.61 | 1454.75 | 1484.04 | 1508.51 | 1516.96
303.13 K | 1163.66 | 1279.59 | 1365.31 | 1417.47 | 1449.64 | 1478.96 | 1503.42 | 1511.85
308.15 K | 1158.66 | 1274.53 | 1360.26 | 1412.42 | 1444.59 | 1473.89 | 1498.38 | 1506.8
313.15 K | 1153.63 | 1269.48 | 1355.2 | 1407.36 | 1439.52 | 1468.84 | 1493.29 | 1501.74

CCn1cc[n+](C)c1.O=S(=O)([N-]S(=O)(=O)C(F)(F)F)C(F)(F)F + C1CCOC1
mass density [kg/m3], [1]
Details | x1 = 0.1037 | x1 = 0.2024 | x1 = 0.3255 | x1 = 0.3841 | x1 = 0.4425 | x1 = 0.5469 | x1 = 0.6863 | x1 = 0.7697 | x1 = 0.9177 | x1 = 1
293.15 K | 1065.02 | 1178.77 | 1278.55 | 1315.59 | 1347.51 | 1395.4 | 1444.8 | 1469.16 | 1505.22 | 1522.08
298.15 K | 1061.32 | 1173.6 | 1274.14 | 1310.96 | 1342.57 | 1390.69 | 1440.1 | 1464.51 | 1500.21 | 1516.96
303.13 K | 1056.14 | 1168.46 | 1269.66 | 1306.48 | 1337.7 | 1385.78 | 1435.45 | 1459.45 | 1495.17 | 1511.85
308.15 K | 1051.2 | 1163.55 | 1264.42 | 1301.8 | 1332.56 | 1381.31 | 1430.62 | 1454.67 | 1490.13 | 1506.8

C[S+](C)[O-] [dimethyl sulfoxide] + CCCC[n+]1ccn(C)c1.O=S(=O)([N-]S(=O)(=O)C(F)(F)F)C(F)(F)F
[1], x2 = 0
Details | mass density [kg/m3]
293.15 K | 1100.31
298.15 K | 1095.3
303.13 K | 1090.31
308.15 K | 1085.27
313.15 K | 1080.27
